Experimental data reported in US10653698B2, “Methods of improving myocardial performance in Fontan patients using udenafil compositions” (priority 2014, dated 2020).
Like-named read-outs stand apart in the source and are kept apart here.

Tests used:
[1] = tested on: adolescents with single ventricle physiology after Fontan palliation; type: in vivo, human
Method: A Phase I/II dose escalation trial of Udenafil in adolescents with single ventricle physiology after Fontan palliation was conducted. […] The 36 subjects enrolled in the trial were comprised of 6 cohorts, as described in Table 1. The goals for this trial were to assess the safety of udenafil at multiple dose levels over a five-day period, the pharmacokinetic profile of udenafil in adolescents with Fontan physiology, and the short-term effect of udenafil on pharmacodynamic measures of exercise capacity, ventricular performance, and vascular function. Multiple doses of udenafil or a pharmaceutically acceptable salt thereof were administered to male and female Fontan patients who are 14-18 years of age. Inclusion Criteria for the trial were: • Males and females with Fontan physiology who are 14-18 years of age. • Willingness to return to center to complete blood draws and exercise tests as described in the study protocol. • Patients must agree to abstain from alcohol, caffeinated beverages, and grapefruit juice for the duration of the trial. • Informed assent from subject and informed consent from parent/legal guardian as appropriate. […] The purpose of this example was to describe and evaluate the safety of the udenafil compositions administered in the study described in Example 1. Tables 3-6 present numbers of subjects reporting at least one AE; data are presented by treatment group. The counts are presented by AE category (Table 3) and by preferred term (Table 6). Tables 3-6 report all AEs by category (Table 3), serious AEs (Table 4), non-serious AEs (Table 5), and all AEs by preferred term (Table 6). […] Tables 9-12 present AEs by preferred term (similar to Table 6), but additionally report the number of subjects with an AE and the number of AEs (Table 9), the number of AE events/subjects grouped by treatment group and by related (including possibly or probably) vs. not related to the study drug (Table 10), mild vs. moderate/severe (Table 11), and expected vs. unexpected AEs (Table 12).

clinical = settings: human, in vivo
Method: The population PK analysis was performed using a non-linear mixed effects modeling approach. This approach estimates the typical value of parameters and their variances. It was assumed subjects were at steady state (SS): at a time (t) after dose (D) given at time tD after repeated administration of dose D given at interval τ (t≥tD) as PK samples/udenafil concentrations were taken on study day 6.
As only the drug administration at Day 6 was supplied, it is expected that the subjects have taken the drug at regular intervals at home; due to this a steady state flag will be tested to account for the doses which are not available. As stated, it is assumed steady state has been reached by Day 6, as previous studies of udenafil have stated that during multiple dosing, steady state is reached in 5 days, with apparently little additional accumulation occurring after dosing for 7 days. If there were missed doses during the study period prior to the PK sampling, this can affect the ability to determine whether steady state could be assumed or not for the PK profile. If two or more additional drug administration dates and times were available prior to the visit where the PK samples were taken, then a much better dosing profile could be used for analysis.
One- and two-compartment models were explored (based on literature and available data). The equation for the Input model for the drug described oral absorption. For the one-compartment model, the following equation may apply to the model:
The robustness of the final model was assessed in PDxPOP® 5 by bootstrap re-sampling (n=1000). Values obtained with the bootstrap (based on all runs with successful minimization) were compared to the parameter estimates from the final model. To evaluate the accuracy of the model predictions, normalized prediction distribution errors (NPDE) was performed.
One- and two-compartment models with oral absorption input were evaluated using initial estimates obtained from the literature as described above, and were explored to determine the potential structure of the model. The models were evaluated during the model building process by using objective function value, level of statistical significance, goodness of fit plots, and standard error.
The only covariate available for analysis was current body weight. Weight was tested as a fixed effect on typical values for clearance and volume of distribution (e.g., weight has a “fixed effect” on clearance). Median weight in the dataset was 65.3 kg. […]
During the model building process, a number of residual error models were evaluated. […]
Bootstrap re-sampling was undertaken to compare the parameter estimates from the final model with those determined following 1000 bootstrap runs. […]

CCCOc1ccc(S(=O)(=O)NCCC2CCCN2C)cc1-c1nc2c(CCC)nn(C)c2c(=O)[nH]1 (stereo not shown) [udenafil]
AE category: Musculoskeletal/skin ([1]; 37.5 mg daily): 1 (17%) n (%) | AE category: Musculoskeletal/skin ([1]; 37.5 mg twice daily): 1 (17%) n (%) | AE category: Musculoskeletal/skin ([1]; 87.5 mg daily): 1 (17%) n (%) | AE category: Musculoskeletal/skin ([1]; 87.5 mg twice daily): 2 (33%) n (%) | AE category: Musculoskeletal/skin ([1]; 125 mg daily): 2 (33%) n (%) | subjects who had expected adverse events ([1]; both, human, in vivo, 5 day): 27 | subjects who had unexpected adverse events ([1]; both, human, in vivo, 5 day): 18 | Subjects with adverse events possibly related to the study drug ([1]; both, human, in vivo, 5 days): 21 subjects | Subjects with adverse events probably related to the study drug ([1]; both, human, in vivo, 5 days): 11 subjects | Subjects with adverse events related to the study drug ([1]; both, human, in vivo, 5 days): none | Subjects with adverse events unrelated to the study drug ([1]; both, human, in vivo, 5 days): 17 subjects | subjects who had a severe adverse event ([1]; both, human, in vivo, 5 days): 1 | subjects who had mild adverse events ([1]; both, human, in vivo, 5 days): 27 | subjects who had moderate adverse events ([1]; both, human, in vivo, 5 days): 13 | Serious adverse events ([1]; in vivo): No serious AEs were reported | Vd/F (clinical): 74 L | apparent clearance (CL/F/70 kg) (clinical): 36 L/h | inter-compartmental clearance (Q/F) (clinical): 21.1 L/h | peripheral volume of distribution (V3/F) (clinical): 181 L
